Assay results from patent US20260152794A1, “EFFICACY OF CHRONIC PELVIC PAIN TREATMENT” (THE UNIVERSITY COURT OF THE UNIVERSITY OF EDINBURGH, priority 2022, published 2026).

Experiments:
[1] = tested on: women with chronic pelvic pain; conditions: GaPP2 trial, women with CPP (reference 7); cited from earlier work
[2] = tested on: women with chronic pelvic pain; conditions: embedded mechanistic study of GaPP2 (reference 8); cited from earlier work
[3] = tested on: women with chronic pelvic pain; test: Mechanistic fMRI study: brain response to abdominal punctate stimuli before and after 12 weeks of treatment; format: in vivo, human; conditions: rs4442490 TT responders (n = 2) compared with TG/GG non-responders (n = 5); brain regions of Table 4
Description: Within the sample taking part in the gabapentin RCT, a small number also took part in a mechanistic fMRI study, undergoing MRI brain scans before and after 12 weeks of treatment. […] Punctate task fMRI pre-processing is described in the supplementary materials. For those for whom both genetic and imaging data was available, the gabapentin pre- and post-treatment scans were compared. The first-level contrast of post-treatment>pre-treatment punctate vs rest was taken into a random effects analysis comparing SNP variants, with clusters achieving a whole-brain, FWE-corrected significance of p<0.05 being reported.

[4] = tested on: women with chronic pelvic pain; test: GaPP2 trial secondary analysis: gabapentin intolerance (side-effect burden); format: in vivo, human; conditions: side-effects reported during the study period; genotyped participants
Description: (§1) This study is a planned secondary analysis of the GaPP2 trial, a UK-based multicentre, randomised, placebo-controlled trial of gabapentin versus placebo in women with chronic pelvic pain. Trial protocol including ethical approval and exclusion and inclusion criteria are published in full elsewhere. (17) All participants were women aged 18-50 years of age, were using or willing to use contraception to avoid pregnancy and had no obvious pelvic pathology at laparoscopy which must have taken place at least 2 weeks and less than 36 months prior to consent. Participants were randomly assigned to gabapentin (titrated to maximum dose 2700 mg daily) or placebo for 16 weeks. At inclusion to the trial, participants were asked to provide a saliva sample for inclusion in this study.
Cases were categorised into two phenotypes assessing the analgesic response to gabapentin and the degree of intolerance (side-effect burden). Gabapentin analgesic response was defined categorically using the coprimary outcomes of the GaPP2 trial: worst and average pain. Gabapentin ‘responders’ were defined as having reported a ≥30% reduction in worst and/or average pain scores on a numerical rating scale (1-10) after 12 weeks of gabapentin exposure. Gabapentin intolerance was also categorised categorically using a cut-off of ≥3 side-effects reported during the study period. […]

[5] = tested on: women with chronic pelvic pain; conditions: GaPP2 trial, women with CPP (reference 7); cited from earlier work; remark: listed apart in the source
[6] = tested on: women with chronic pelvic pain; test: GaPP2 trial secondary analysis: gabapentin analgesic (pain) response, worst and average pain on numerical rating scale; format: in vivo, human; conditions: for Average pain (NRS), End of study: mean; for Average pain (NRS), End of study / Worst pain (NRS), End of study: numerical rating scale 1-10; for Worst pain (NRS), End of study: median
Description: as §1
Cases were categorised into two phenotypes assessing the analgesic response to gabapentin and the degree of intolerance (side-effect burden). Gabapentin analgesic response was defined categorically using the coprimary outcomes of the GaPP2 trial: worst and average pain. Gabapentin ‘responders’ were defined as having reported a ≥30% reduction in worst and/or average pain scores on a numerical rating scale (1-10) after 12 weeks of gabapentin exposure. Gabapentin intolerance was also categorised categorically using a cut-off of ≥3 side-effects reported during the study period. Cases were categorised into ≥3 side-effects and <3 side-effects.

[7] = Pain non-responder group (n = 46)
[8] = after 12 weeks of gabapentin exposure, genotyped participants

**Q.** For `NCC1(CC(=O)O)CCCCC1` [gabapentin], which side-effects versus placebo [1] is on record?
**A.** associated with more side-effects

**Q.** And the “effect on brain region in response to abdominal punctate stimuli (functional MRI)” value [2]?
**A.** appeared to exert an effect on the anterior cingulate cortex

**Q.** And the “fMRI punctate activation after treatment versus before” value [3]?
**A.** decrease in punctate activation

**Q.** And the “number of participants with <3 side-effects” value [4]?
**A.** <3 side-effects (n = 23)

**Q.** What about the “number of participants with ≥3 side-effects” value [4] of the same compound?
**A.** ≥3 side-effects (n = 53)

**Q.** And the “improvement of worst or average pain scores versus placebo” value [5]?
**A.** not superior to placebo

**Q.** And the “Average pain (NRS), End of study” value [6, 7]?
**A.** 5.8

**Q.** And the “Worst pain (NRS), End of study” value [6, 7]?
**A.** 9

**Q.** And the “Average pain (NRS), End of study” value ([6]; Pain responder group (n = 31), gabapentin titrated to maximum 2700 mg daily)?
**A.** 2.5

**Q.** What about the “Worst pain (NRS), End of study” value ([6]; Pain responder group (n = 31)) of the same compound?
**A.** 6

**Q.** And the “number of pain non-responders” value [6, 8]?
**A.** (n = 46)

**Q.** What about the “number of pain responders (≥30% reduction in worst and/or average pain scores)” value [6, 8] of the same compound?
**A.** (n = 31)

**Q.** What about the “average reduction in average pain” value ([6]; subjects in the gabapentin pain responder group) of the same compound?
**A.** 47%
